The nature of data set [1]: 14-day repeat-dose intranasal toxicity study with 14-day recovery in rats (Study 700041). The class given is in vivo, rat. To be noted: both sexes, Sprague Dawley, in vivo, inhaled or intranasal; 14-day intranasal, rat. As for the experimental part: (§1) The animals were monitored for mortality, clinical signs, respiratory measurements, body weights, food consumption, and body temperature. Ophthalmoscopic examinations and respiratory function tests were performed on all animals at scheduled timepoints. Clinical pathology assessments (hematology, coagulation, clinical chemistry, and urinalysis) were evaluated at termination. […] Following dosing, the Main animals were euthanized and subjected to a complete necropsy examination on Day 15. […] TK animals were euthanized after the last blood collection and discarded without further examination. At terminal euthanasia, selected tissues/organs were weighed, and microscopic evaluations of a standard set of tissues including the nasal turbinates (4 sections) and brain (7 sections) were performed for all Main and Recovery study animals.
(§2) Following dosing, animals in the Main group were euthanized and subjected to a necropsy examination on Day 15. […] For toxicokinetics, a series of 8 blood samples (approximately 0.5 mL each) were collected from all rats in the Toxicokinetic group (3 rats/sex/timepoint) on Days 1 and 14 of the treatment period at 2, 5, 10, 15 and 30 minutes, and 1.0, 3.0 and 8 hours after treatment. For control rats (3 rats/sex) in the Toxicokinetic group only 1 sample was collected at the 15 minutes post dosing timepoint on Days 1 and 14.
(§3) Toxicity was based on the following parameters monitored: mortality/morbidity, clinical observations, body weights/gains, food consumption, ophthalmoscopy, clinical pathology (hematology, coagulation, chemistry, and urinalysis), necropsy observations, selected organ weights, and microscopic examination of a complete set of standard tissues including 4 cross levels of the nasal cavity and 7 sections of the brain.

The next data set has as its system Sprague Dawley rats. The data set is described as above. The format is in vivo, rat. To be noted: for Thymus Mean Absolute Weight, percentage compared to the control value: males; for Clinical signs: male and female. As for the experimental part: as §1, §2, §3

Molecule `COc1ccc2[nH]cc(CCN(C)C)c2c1` [BPL-5MEO, 5-methoxy-N,N-dimethyltryptamine] returned a no observed adverse effect level (NOAEL) at 14 days in data set [1] of 5 mg/kg. Further, in the data set with Sprague Dawley rats (14-day pivotal GLP intranasal toxicity study, rats), the “Effect on reproductive tissues” value is “no evidence of an adverse effect on reproductive tissues”. Besides, the Respiratory rates result with Sprague Dawley rats (20 minutes post dose) is “Decreases in respiratory rates”. The “Thymus Mean Absolute Weight, percentage compared to the control value” in the data set with Sprague Dawley rats (Group 2 (5 mg/kg/day)) is reported as −4%; in the data set on Sprague Dawley rats (Group 3 (20 mg/kg/day)), 18%; in the data set with Sprague Dawley rats (Group 4 (75 mg/kg/day)), −31%. Moreover, the Clinical signs result with Sprague Dawley rats (Group 2 (Low Dose) 5 mg/kg/day) was “incoordination, shaking, salivation, decreased activity, lying on cage floor and sensitive to touch”; in the data set on Sprague Dawley rats (Group 3 (Mid Dose) 20 mg/kg/day), “incoordination, shaking (or tremor), increased or shallow respiration, mydriasis, salivation, decreased activity, partially closed eyes, lying on cage floor and sensitive to touch”; in the data set on Sprague Dawley rats (Group 4 (High Dose) 75 mg/kg/day) it was “incoordination, shaking (or tremor), increased or shallow respiration, mydriasis, salivation, decreased activity, partially closed eyes, lying on cage floor and sensitive to touch”. In the data set on Sprague Dawley rats (Main animals, proportional to dose, greater in males), the “Microscopic findings, epithelium of nasal cavities 1-4” value is “minimal to mild changes”. The “Reversibility of nasal microscopic findings” value in the data set on Sprague Dawley rats (after 14-day recovery period) is recorded as “incomplete but progressive ongoing reversal of epithelial degeneration”. Further, in the data set on Sprague Dawley rats (both sexes), the Body temperature entry is “Slight dose dependent body temperature increases”. The Body weight gain entry in the data set on Sprague Dawley rats (both sexes, Days 1 to 14) is “Slight dose-dependent body weight gain suppression”. Further, the Ocular effect entry with Sprague Dawley rats (dose levels 75 mg/kg/day for 14 days) is given as “no adverse ocular effect”. Besides, the “Activated partial thromboplastin time (APTT)” value in the data set with Sprague Dawley rats (mid (20 mg/kg/day) and high (75 mg/kg/day) dose groups, both sexes) is “APTT were increased”. The Hematology entry in the data set with Sprague Dawley rats (mid and high dose groups, both sexes) is “Platelet, neutrophil, monocyte and basophil counts were slightly increased”. Also, the Overall tolerability result in the data set on Sprague Dawley rats (≤75 mg/kg/day for 14 consecutive days) is “tolerated with no BPL-5MEO-related effects on mortality, ophthalmology, clinical chemistry, macroscopic findings and urinalysis”.

For orientation: NOAEL means the highest dose or exposure tested at which no adverse effect was seen.
